Experimental data: patent US20240239799A1, “(S)-1-(5-((PYRIDIN-3-YL)THIO)PYRAZIN-2-YL)-4'H,6'H-SPIRO[PIPERIDINE-4,5'-PYRROLO [1,2-B]PYRAZOL]-4'-AMINE DERIVATIVES AND SIMILAR COMPOUNDS AS SHP2 INHIBITORS FOR THE TREATMENT OF E.G. CANCER” (C.N.C.C.S. S.C.A.R.L. COLLEZIONE NAZIONALE DEI COMPOSTI …, priority 2021, published 2024)

Columns and labels:
[1] = biological target: T1, SHP-2 enzyme (Met1-Leu525) (Homo sapiens, UniProt Q06124); test: SHP2 inhibition enzymatic assay (DiFMUP substrate, IRS1 peptide activation); type: biochemical; settings: 0.5 nM SHP-2, 500 nM IRS1 peptide, 75 μM DiFMUP; read-out: SHP2wt - IC50
T1 construct: synthetized by Origene, Met1-Leu525, cat #TP750155; purchased Origene TP750155
T1 sequence (Q06124 1-525): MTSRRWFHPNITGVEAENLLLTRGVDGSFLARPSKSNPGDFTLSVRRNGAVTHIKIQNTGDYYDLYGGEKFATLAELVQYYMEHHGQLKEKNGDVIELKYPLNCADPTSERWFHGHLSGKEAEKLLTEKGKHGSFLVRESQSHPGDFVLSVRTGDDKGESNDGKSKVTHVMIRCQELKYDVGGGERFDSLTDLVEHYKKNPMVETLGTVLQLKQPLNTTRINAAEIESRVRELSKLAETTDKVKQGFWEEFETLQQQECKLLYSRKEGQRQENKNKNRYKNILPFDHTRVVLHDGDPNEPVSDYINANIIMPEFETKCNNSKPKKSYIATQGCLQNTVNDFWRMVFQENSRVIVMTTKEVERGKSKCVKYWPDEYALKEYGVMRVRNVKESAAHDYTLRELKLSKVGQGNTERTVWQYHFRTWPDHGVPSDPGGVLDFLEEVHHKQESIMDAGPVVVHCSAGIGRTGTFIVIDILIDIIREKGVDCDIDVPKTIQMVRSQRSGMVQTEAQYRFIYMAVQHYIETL

[2] = system: phospho-ERK1/2 (Thr202/Tyr204) in KYSE-520 cells; test: Phospho-ERK cellular assay (TR-FRET); type: cell-based; settings: Homo sapiens, KYSE-520, 2 h, KYSE-520 cells, 2 h at 37° C.; read-out: pERK IC50
Summary of the method: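 KYSE-520 cells plated overnight, then exposed to compound for 2 h at 37° C and lysed. Phospho-ERK1/2 (Thr202/Tyr204) detected by TR-FRET with Eu-cryptate and D2 antibodies after overnight incubation at rt. IC50 from four-parameter fit, normalised to DMSO (0%) and no-cell (100%) controls.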

[3] = biological target: T2, SHP2 (Avi-G4SG4S-PTPN11(1-525)) (Homo sapiens, UniProt Q06124); test: Binding kinetic assay by surface plasmon resonance (SPR); settings: Biacore T200, single cycle kinetic, 1:1 Langmuir binding model; for koff: triplicate
T2 construct: (Avi-G4SG4S-PTPN11(1-525)); purchased Viva Biotech Ltd
T2 sequence (Q06124 1-525): T1 sequence (Q06124 1-525)
Method: A binding assay for measuring SHP2 inhibitors binding kinetic was developed using a Biacore T200 Instrument (Cytiva, Sweden). […] Data analysis was performed by Biacore T200 Evaluation software (Cytiva), and kinetic parameters were evaluated by a global fitting according to a 1:1 Langmuir binding model. Each molecule was tested in triplicate on separate flow channels.

| SMILES | IC50 [1] | IC50 [2] | Residence time 1/koff SPR [3] | koff [3] |
| --- | --- | --- | --- | --- |
| Nc1nccc(Sc2cnc(N3CCC4(CC3)Cn3nc5c(c3[C@H]4N)CCC5)c3cncn23)c1Cl [Example 21, (S)-1′-(5-((2-amino-3-chloropyridin-4-yl)thio)imidazo[1,5-a]pyrazin-8-yl)-1,2,3,8-tetrahydro-6H-spiro[cyclopenta[d]pyrrolo[1,2-b]pyrazole-7,4′-piperidin]-8-amine] | ≤ 50 nM | < 100 nM | 12903 s | 7.75e-05 s⁻¹ |
| Cc1cc2n(n1)CC1(CCN(c3ncc(Sc4ccnc(N)c4Cl)n4cncc34)CC1)[C@@H]2N [Example 23, (S)-1-(5-((2-amino-3-chloropyridin-4-yl)thio)imidazo[1,5-a]pyrazin-8-yl)-2′-methyl-4′H,6′H-spiro[piperidine-4,5′-pyrrolo[1,2-b]pyrazol]-4′-amine] | ≤ 50 nM | < 100 nM | 6536 s | 0.000153 s⁻¹ |
| Nc1nccc(Sc2cnc(N3CCC4(CC3)Cn3nc5c(c3[C@H]4N)COC5)cn2)c1Cl [Example 27, (S)-1′-(5-((2-amino-3-chloropyridin-4-yl)thio)pyrazin-2-yl)-1,8-dihydro-3H,6H-spiro[furo[3,4-d]pyrrolo[1,2-b]pyrazole-7,4′-piperidin]-8-amine] | ≤ 50 nM | < 100 nM | 30303 s | 3.3e-05 s⁻¹ |
| Nc1nccc(Sc2cnc(N3CCC4(CC3)Cn3nc5c(c3[C@H]4N)COC5)c3cncn23)c1Cl [Example 29, (S)-1′-(5-((2-amino-3-chloropyridin-4-yl)thio)imidazo[1,5-a]pyrazin-8-yl)-1,8-dihydro-3H,6H-spiro[furo[3,4-d]pyrrolo[1,2-b]pyrazole-7,4′-piperidin]-8-amine] | ≤ 50 nM | > 500 nM | 1715 s | 0.000583 s⁻¹ |
| N[C@@H]1c2ccnn2CC12CCN(c1cnc(Sc3ccn4ccnc4c3Cl)cn1)CC2 [Example 31, (S)-1-(5-((8-chloroimidazo[1,2-a]pyridin-7-yl)thio)pyrazin-2-yl)-4′H,6′H-spiro[piperidine-4,5′-pyrrolo[1,2-b]pyrazol]-4′-amine] | ≤ 50 nM | < 100 nM | 12674 s | 7.89e-05 s⁻¹ |
| Nc1nccc(Sc2cnc(N3CCC4(CC3)Cn3nncc3[C@H]4N)cn2)c1Cl [Example 38, (S)-1-(5-((2-amino-3-chloropyridin-4-yl)thio)pyrazin-2-yl)-4′H,6′H-spiro[piperidine-4,5′-pyrrolo[1,2-c][1,2,3]triazol]-4′-amine] | ≤ 50 nM | < 100 nM | 1062 s | 0.000942 s⁻¹ |
| N[C@@H]1c2c(F)cnn2CC12CCN(c1cnc(Sc3ccn4ccnc4c3Cl)cn1)CC2 [Example 49, (S)-1-(5-((8-chloroimidazo[1,2-a]pyridin-7-yl)thio)pyrazin-2-yl)-3′-fluoro-4′H,6′H-spiro[piperidine-4,5′-pyrrolo[1,2-b]pyrazol]-4′-amine] | ≤ 50 nM | < 100 nM | 14493 s | 6.9e-05 s⁻¹ |
